Measured values reported in US6566355B1 (Hoffmann-La Roche Inc., priority 1991, dated 2003).
Counter-ions that a name gives are not always drawn. Like-named read-outs stand apart in the source and are kept apart here.

Columns and labels:
Citrobacter freundii = assay: MIC in vitro of a 1:4 combination of ceftriaxone with a compound of formula I (test D); type: cell-based; settings: 1:4 combination of ceftriaxone with the compound
Description: D. Determination of the β-lactamase-inhibiting activity by combination of a compound of general formula I with ceftriaxone
The minimum inhibitory concentration in vitro (MIC in μg/ml) of a 1:4 combination of ceftriaxone with a compound of formula I against Citrobacter freundii is measured and compiled in Table 2 hereinafter.

β-lactamase = biological target: T1, β-lactamase (Citrobacter freundii, UniProt P05193); assay: biochemical
T1 construct: Various β-lactamases can be isolated from penicillin- or cephalosporin-resistant bacterial strains such as; endogenous in cells; host or cells: Citrobacter freundii 1203 (enzyme purified from the crude cell extract, after ampicillin induction when necessary)
Outline: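 β-lactamase from C. freundii 1203 crude extract (French press, 20 mM Tris-HCl pH 7.0) assayed with 0.1 mM nitrocefin in 50 mM phosphate pH 7.0 at 37° C, enzyme set to ΔA/min about 0.1, read at 482 nm. IC50 is inhibitor concentration giving 50% inhibition of nitrocefin cleavage, determined graphically.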

[1] = isolated β-lactamase of Citrobacter freundii, substrate nitrocefin 0.1 mM, 15 minutes pre-incubation with inhibitor, 37° C., pH 7.0, read-out: IC 50 nM
[2] = IC 50 nM, isolated β-lactamase of Citrobacter freundii, substrate nitrocefin 0.1 mM, 15 minutes pre-incubation with inhibitor, 37° C., pH 7.0

T1 sequence (P05193 21-381): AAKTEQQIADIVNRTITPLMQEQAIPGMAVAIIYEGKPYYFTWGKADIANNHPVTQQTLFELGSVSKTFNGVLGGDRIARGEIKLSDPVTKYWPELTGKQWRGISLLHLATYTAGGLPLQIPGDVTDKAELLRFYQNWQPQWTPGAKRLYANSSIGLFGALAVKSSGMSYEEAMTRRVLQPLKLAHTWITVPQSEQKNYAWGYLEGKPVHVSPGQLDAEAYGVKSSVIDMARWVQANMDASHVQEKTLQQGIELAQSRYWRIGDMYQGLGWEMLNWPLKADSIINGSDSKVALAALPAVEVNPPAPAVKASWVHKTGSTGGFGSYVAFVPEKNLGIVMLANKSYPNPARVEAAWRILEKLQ

Row | Molecule | MIC (Citrobacter freundii) [µg/mL] | IC50 (β-lactamase) [nM] | IC50 (β-lactamase; [1]) [nM] | IC50 (β-lactamase; [2]) [nM]
1 | O=C(/C=C/c1ccco1)N1CC[C@@H]2[C@H]1C(=O)N2S(=O)(=O)O [Example 5(a), (1S,5R)-2-[(E)-3-(2-Furyl)acryloyl-7-oxo-2,6-diazabicyclo[3.20]heptane-6-sulphonic acid sodium salt] | 4 | 85 |  | 
2 | N[C@@H](Cc1ccc(O)cc1)C(=O)N1CC[C@@H]2[C@H]1C(=O)N2S(=O)(=O)O [Example 6(b), (1S,5R)-7-Oxo-2-L-tyrosyl-2,6-diazabicyclo[3.2.0]heptane-6-sulphonic acid] | 4 | 310 |  | 
3 | COC1=C(C(=O)O)N2C(=O)C3C2C(C1)CN3C(=O)OC(C)(C)C [Example 7, (1aS,3aR,6bR)-1,1a,3a,6b-Tetrahydro-5-methoxy-1-oxo-2,6a-diazacyclobuta[cd]indene-2,6(3H,4H)-dicarboxylic acid 2-t-butyl monoester] | 4 |  | 505 | 
4 | CC(=O)Oc1ccc(/C=C/C(=O)N2CC[C@@H]3[C@H]2C(=O)N3S(=O)(=O)[O-])cc1OC(C)=O.[Na+] [Example 13, 4-[(E)-2-[[(1S,5R)-7-Oxo-6-sulpho-2,6-diazabicyclo[3.2.0]heptan-2-yl]carbonyl]vinyl]-o-phenylene diacetate sodium salt] | 4 |  |  | 63
5 | O=C(NCc1ccco1)N1CC[C@@H]2[C@H]1C(=O)N2S(=O)(=O)O [Example 17(a), (1S,5R)-2-(2-Furan-2-yl-methylcarbamoyl)-7-oxo-2,6-diazabicyclo[3.2.0]heptane-6-sulphonic acid sodium salt] | 2 | 156 |  | 
6 | O=C(CCC(=O)N1CC[C@@H]2[C@H]1C(=O)N2S(=O)(=O)O)NOCc1ccco1 [Example 19, sodium salt] | 2 |  |  | 430
7 | O=C(CS(=O)(=O)c1ccc(O)c(O)c1)N1CC[C@@H]2[C@H]1C(=O)N2S(=O)(=O)O [Example 20, (1S,5R)-2-[[(3,4-Dihydroxyphenyl)sulphonyl]acetyl]-7-oxo-2,6-diazabicyclo[3.2.0]heptane-6-sulphonic acid sodium salt] | 4 |  |  | 165
8 | N[C@@H](C(=O)N1CC[C@@H]2[C@H]1C(=O)N2S(=O)(=O)O)c1ccc(O)c(O)c1.[Na] [Example 21, (1S,5R)-2-[(R,S)-Amino-(3,4-dihydroxyphenyl)acetyl]-7-oxo-2,6-diazabicyclo[3.2.0]heptane-6-sulphonic acid sodium salt] | 4 |  | 695 | 
9 | (1S,5R)-2-[(2-Amino-4-thiazolyl)acetyl]-7-oxo-2,6-diazabicyclo[3.2.0]heptane-6-sulphonic acid triethylamine salt [6(o)] | 2 |  | 350 | 
10 | Mixture of (1S,5R)-2-(5-Amino-1H-tetrazol-1-ylacetyl) and (1S,5R)-2-(5-Amino-2H-tetrazol-2-ylacetyl)-7-oxo-2,6-diazabicyclo[3.2.0]heptane-6-sulfonic acid sodium salt (1:2) [23(k)] | 2 |  | 273 | 
11 | Mixture of (1S,5R)-2-[(E)-3-(1-Methyl-3- and -4- or -3- and -5- or -4- and -5-sulfo-pyrrol-2-yl)acryloyl]-7-oxo-2,6-diazabicyclo[3.2.0]heptane-6-sulfonic acid sodium salt (1:2) [23(j)] | 1 |  | 38 | 
